Experimental findings from PubChem BioAssay AID328 (DTP/NCI, 2004) are described below.

For the experiment, the system named is BDF1 mice, P388 leukemia ip, median survival T/C. As to the kind of experiment: NCI In Vivo Anticancer Drug Screen. Data for tumor model P388 Leukemia (intraperitoneal) in B6D2F1 (BDF1) mice. The settings on record: endpoint: median survival time, higher = longer survival. Here is the method:
The antitumor activity of compounds was measured in mice bearing transplantable tumors. Survival or tumor size were measured and the results are expressed as the measurement made in the treated group (T) divided by the measurement made in the vehicle treated control group (C). The tumor model used in this assay is P388 Leukemia (intraperitoneal) in B6D2F1 (BDF1) mice

[1] abbreviates: dose: 50.0 mg/kg/injection, schedule: Q04DX003 (ip), vehicle: Klucel (hydroxypropylcellulose) (HPC).
Setting [2] is: dose: 100.0 mg/kg/injection, schedule: Q04DX003 (ip), vehicle: Klucel (hydroxypropylcellulose) (HPC).
[3] abbreviates: dose: 200.0 mg/kg/injection, schedule: Q04DX003 (ip), vehicle: Klucel (hydroxypropylcellulose) (HPC).
The mark [4] stands for this setting: dose: 100.0 mg/kg/injection, schedule: Q04DX003 (ip), vehicle: saline with Tween-80.
The mark [5] stands for this setting: dose: 200.0 mg/kg/injection, schedule: Q04DX003 (ip), vehicle: saline with Tween-80.
[6] abbreviates: dose: 12.5 mg/kg/injection, schedule: Q01DX009 (ip), vehicle: saline with Tween-80.
Setting [7] is: dose: 25.0 mg/kg/injection, schedule: Q01DX009 (ip), vehicle: saline with Tween-80.
Where [8] appears, read: dose: 25.0 mg/kg/injection, schedule: Q04DX003 (ip), vehicle: saline with Tween-80.
The mark [9] stands for this setting: dose: 50.0 mg/kg/injection, schedule: Q01DX009 (ip), vehicle: saline with Tween-80.
Setting [10] is: dose: 50.0 mg/kg/injection, schedule: Q04DX003 (ip), vehicle: saline with Tween-80.
Where [11] appears, read: dose: 200.0 mg/kg/injection, schedule: Q01DX001 (ip), vehicle: other.
Where [12] appears, read: dose: 400.0 mg/kg/injection, schedule: Q01DX001 (ip), vehicle: other.

Molecules are shown by their SMILES. “And” between values parts separate entries of the source, which are not always exact repeats. Identical values can stand only once. Toxic doses and inconclusive results are not listed.

Take `Cc1cc(C)c(B2OB(c3c(C)cc(C)cc3C)O2)c(C)c1`: the T/C is 95 % of control under setting [1], 100 % of control under setting [2] and 95 % of control under setting [3].

Regarding `Oc1ccccc1C=NCCN1CC1.Oc1ccccc1C=NCCN1CC1.[Ni+2]`, the T/C runs as follows: (dose: 6.25 mg/kg/injection, schedule: Q01DX009 (ip), vehicle: Klucel (hydroxypropylcellulose) (HPC)) 101 % of control; (dose: 12.5 mg/kg/injection, schedule: Q01DX009 (ip), vehicle: Klucel (hydroxypropylcellulose) (HPC)) 101 % of control; (dose: 12.5 mg/kg/injection, schedule: Q04DX003 (ip), vehicle: Klucel (hydroxypropylcellulose) (HPC)) 98 % of control; (dose: 25.0 mg/kg/injection, schedule: Q04DX003 (ip), vehicle: saline sonified) 115 % of control; under setting [1], 122 % of control.

Consider `O=C(O)/C(=C\c1ccccc1Br)c1ccc(C(F)(F)F)cc1[N+](=O)[O-]`, for which the T/C runs as follows: (dose: 75.0 mg/kg/injection, schedule: Q01DX001 (ip), vehicle: saline with Tween-80) 100 % of control; (dose: 150.0 mg/kg/injection, schedule: Q01DX001 (ip), vehicle: saline with Tween-80) 95 % of control; (dose: 300.0 mg/kg/injection, schedule: Q01DX001 (ip), vehicle: saline with Tween-80) 100 % of control.

On to `CC(C)CC(NC(=O)C(O)C(N)Cc1ccccc1)C(=O)O` (centres undefined), for which the T/C runs as follows: (dose: 37.5 mg/kg/injection, schedule: Q01DX009 (ip), vehicle: saline with Tween-80) 94 % of control and 98 % of control; (dose: 75.0 mg/kg/injection, schedule: Q01DX009 (ip), vehicle: saline with Tween-80) 95 % of control and 98 % of control; (dose: 150.0 mg/kg/injection, schedule: Q01DX009 (ip), vehicle: saline with Tween-80) 95 % of control and 100 % of control.

In the case of `CCO/C=C1\SC(=S)N(Cc2ccccc2)C1=O`, the T/C (dose: 12.5 mg/kg/injection, schedule: Q01DX009 (ip), vehicle: other) was 86 % of control; the T/C (dose: 25.0 mg/kg/injection, schedule: Q01DX009 (ip), vehicle: other) is 109 % of control; the T/C (dose: 44.0 mg/kg/injection, schedule: Q04DX003 (ip), vehicle: other) was 118 % of control; the T/C (dose: 44.0 mg/kg/injection, schedule: Q04DX003 (ip), vehicle: saline + alcohol) was 100 % of control; the T/C (dose: 44.0 mg/kg/injection, schedule: Q04DX003 (ip), vehicle: saline with Tween-80) was 118 % of control; the T/C (dose: 100.0 mg/kg/injection, schedule: Q04DX003 (ip), vehicle: saline + alcohol) is 104 % of control. In addition, the T/C is 154 % of control (dose: 150.0 mg/kg/injection, schedule: Q04DX003 (ip), vehicle: other); 95 % of control (dose: 150.0 mg/kg/injection, schedule: Q04DX003 (ip), vehicle: saline + alcohol); 116 % of control (dose: 150.0 mg/kg/injection, schedule: Q04DX003 (ip), vehicle: saline with Tween-80).

As to `CCN(CC)P1(=S)OCC(C)O1` (centres undefined), the T/C reads like this: under setting [4], 92 % of control; under setting [5], 100 % of control; (dose: 400.0 mg/kg/injection, schedule: Q04DX003 (ip), vehicle: saline with Tween-80) 111 % of control.

For `BrCCC[P+](c1ccccc1)(c1ccccc1)c1ccccc1`, the T/C by setting is: (dose: 0.94 mg/kg/injection, schedule: Q01DX010 (ip), vehicle: saline) 95 % of control; (dose: 1.88 mg/kg/injection, schedule: Q01DX010 (ip), vehicle: saline) 104 % of control; (dose: 1.9 mg/kg/injection, schedule: Q01DX009 (ip), vehicle: saline) 105 % of control; (dose: 3.13 mg/kg/injection, schedule: Q04DX003 (ip), vehicle: saline) 92 % of control; (dose: 3.75 mg/kg/injection, schedule: Q01DX009 (ip), vehicle: saline) 122 % of control; (dose: 3.75 mg/kg/injection, schedule: Q01DX010 (ip), vehicle: saline) 114 % of control. The T/C is, setting by setting: (dose: 6.25 mg/kg/injection, schedule: Q04DX003 (ip), vehicle: saline) 92 % of control; (dose: 7.5 mg/kg/injection, schedule: Q01DX009 (ip), vehicle: saline) 111 % of control; (dose: 7.5 mg/kg/injection, schedule: Q01DX010 (ip), vehicle: saline) 123 % of control; under setting [6], 150 % of control; (dose: 12.5 mg/kg/injection, schedule: Q04DX003 (ip), vehicle: saline) 103 % of control; (dose: 15.0 mg/kg/injection, schedule: Q01DX009 (ip), vehicle: saline) 194 % of control. The T/C (dose: 15.0 mg/kg/injection, schedule: Q01DX010 (ip), vehicle: saline) was 118 % of control.

As for `O=Cc1nccn1Cc1ccccc1`, the T/C was 116 % of control under setting [6]; 100 % of control (dose: 12.5 mg/kg/injection, schedule: Q04DX003 (ip), vehicle: saline with Tween-80); 100 % of control under setting [7]; 103 % of control under setting [8]; 108 % of control under setting [9]; 96 % of control under setting [10]. Further, the T/C was 105 % of control (dose: 100.0 mg/kg/injection, schedule: Q01DX009 (ip), vehicle: saline with Tween-80); 106 % of control under setting [4]; 98 % of control (dose: 200.0 mg/kg/injection, schedule: Q01DX009 (ip), vehicle: saline with Tween-80); 101 % of control and 106 % of control under setting [5]; 103 % of control (dose: 300.0 mg/kg/injection, schedule: Q04DX003 (ip), vehicle: saline with Tween-80); 107 % of control (dose: 400.0 mg/kg/injection, schedule: Q01DX009 (ip), vehicle: saline with Tween-80).

Take `CCOC(=O)c1cc2ccccc2oc1=O`: the T/C by setting is: under setting [7], 95 % of control; under setting [8], 115 % of control; under setting [9], 100 % of control; under setting [10], 105 % of control; under setting [4], 105 % of control.

As to `OCc1cc2ccccc2cc1O`, the T/C is 90 % of control under setting [2]; 109 % of control under setting [3]; 104 % of control (dose: 400.0 mg/kg/injection, schedule: Q04DX003 (ip), vehicle: Klucel (hydroxypropylcellulose) (HPC)).

Take `O=[N+]([O-])c1ccc(/C=[N+](\[O-])CCO)cc1`: the T/C is 101 % of control (dose: 6.25 mg/kg/injection, schedule: Q01DX009 (ip), vehicle: saline with Tween-80); 101 % of control under setting [6]; 100 % of control under setting [7].

On to `CCOC(=O)N1N(C(=O)c2ccccc2)C(=O)CC1(C)C`, for which the T/C reads like this: under setting [11], 100 % of control; under setting [12], 109 % of control.

Turning to `O=C1CCCCCC2CC12` (centres undefined) (tested in a mixture with another compound), the T/C by setting is: (dose: 100.0 mg/kg/injection, schedule: Q01DX001 (ip), vehicle: other) 98 % of control; under setting [11], 103 % of control; under setting [12], 108 % of control.

In the case of `CC(C)(C)/C=N/Nc1ccc([N+](=O)[O-])cc1[N+](=O)[O-]`, the T/C is, setting by setting: under setting [1], 104 % of control; (dose: 100.0 mg/kg/injection, schedule: Q01DX009 (ip), vehicle: Klucel (hydroxypropylcellulose) (HPC)) 100 % of control; under setting [2], 104 % of control; (dose: 200.0 mg/kg/injection, schedule: Q01DX009 (ip), vehicle: Klucel (hydroxypropylcellulose) (HPC)) 100 % of control; under setting [3], 109 % of control; (dose: 400.0 mg/kg/injection, schedule: Q01DX009 (ip), vehicle: Klucel (hydroxypropylcellulose) (HPC)) 95 % of control.

For the molecule `Cc1ccnc(NC(=O)Nc2ccccc2F)c1`, the T/C was 90 % of control (dose: 100.0 mg/kg/injection, schedule: Q01DX001 (ip), vehicle: Klucel (hydroxypropylcellulose) (HPC)); 95 % of control (dose: 200.0 mg/kg/injection, schedule: Q01DX001 (ip), vehicle: Klucel (hydroxypropylcellulose) (HPC)); 105 % of control (dose: 400.0 mg/kg/injection, schedule: Q01DX001 (ip), vehicle: Klucel (hydroxypropylcellulose) (HPC)).

For the molecule `CCOC(=O)CCN(CC1CC=CCC1)c1cc(O)c2c(c1O)C(=O)c1ccccc1C2=O` (centres undefined), the T/C by setting is: (dose: 50.0 mg/kg/injection, schedule: Q01DX005 (ip), vehicle: saline with Tween-80) 94 % of control; (dose: 100.0 mg/kg/injection, schedule: Q01DX005 (ip), vehicle: saline with Tween-80) 89 % of control; (dose: 200.0 mg/kg/injection, schedule: Q01DX005 (ip), vehicle: saline with Tween-80) 90 % of control.
